From patent US9522909B2, “Thiazolidinedione derivatives, preparation thereof and use thereof in cancer treatment” (UNIVERSITE DE LORRAINE, priority 2012, dated 2016)
Structures can show the parent of a compound that is named as a salt.

Experiments:
female NMRI mice = assay: Toxicity test on mice (maximum tolerated dose, intravenous injection); settings: mouse, in vivo, iv
Description: (§1) A toxicity test was conducted on mice for the molecules D and E. These molecules therefore only differ by the substituted methyl group on thiazolidinedione. As a comparison, the test was also conducted by using Δ2TGZ. These analyses were conducted on female NMRI mice weighing 20-25 g. Groups of three mice were set up: a non-injected control batch, a batch receiving the solvent of the molecules to be tested (water PPI, polyethylene glycol 400, absolute ethanol mixture in proportions 5/3/2), three other batches receiving the molecules to be tested. The compounds were injected into the tail vein of mice anaesthetized beforehand. The animals were weighed before and then 24 hours and 48 hours after intravenous injection of the products at the different tested doses and then they were also weighed three times a week for two weeks. The behavior of the whole of the mice was observed before, and then one hour, two hours and three hours after the intravenous injection and then daily for two weeks. The compounds were first tested at the limit of their solubility.

PC3 = assay: Antiproliferative activity (MTS) on PC3; assay type: cell-based; settings: Homo sapiens, PC-3; 10^-5 M, 72 hours, triplicate; read-out: percentage of inhibition of cell growth, PC3
Description: (§2) Antiproliferative activity was measured for different compounds according to the invention by analysis of cytoxicity at 10^−5M on diverse cancer cell lines in DMSO in triplicate. For certain molecules and certain lines, the same procedure was used for determining the IC50 values (the required concentration in μM for inhibiting by half the proliferation of the cells), by conducting cytotoxicity tests at concentrations from 0.005 μM to 100 μM in duplicate. The procedure is the following. The cells of the relevant line are sown in the suitable medium (see Table III) added with L-glutamine, with 10% (v/v) of fetal calf serum, 100 IU of penicillin, 100 μg/mL of streptomycin and 1.5 μg/mL of fungizone and maintained under 5% of CO2 at 37° C. 96-well plates are sown with the required number of cells per well (see Table III) in 200 μL of medium. 24 hours later, the chemical compounds to be investigated, dissolved in DMSO, are added and the media are maintained for 72 hours under these conditions with a set final concentration in DMSO (1%). The controls received an equal volume of DMSO. The number of viable cells is measured at 490 nm with the MTS reagent (Promega, Madison Wis.). The IC50s are calculated as the concentrations of compounds inducing 50% inhibition of cell proliferation.
(§3) Tables IV and V below indicate the percentage of inhibition of cell growth, i.e. the percentage of dead cells after treatment with a compound dose of 10^−5 M. The tests were conducted in triplicate.

[1] = Toxicity test on mice (maximum tolerated dose, intravenous injection); settings: mouse, in vivo; female NMRI mice, intravenous injection into the tail vein, observed two weeks
Description: as §1

MCF7 = assay: Antiproliferative activity (MTS) on MCF7; assay type: cell-based, human; settings: Homo sapiens, MCF7, 72 hours; for inhibition at 10 µM: 10^-5 M, triplicate, read-out: percentage of inhibition of cell growth, MCF7; for IC50: averages of two independent values
Description: as §2, §3

LNCaP = assay: Antiproliferative activity (MTS) on LNCaP; assay type: cell-based; settings: Homo sapiens, 72 hours; for inhibition at 10 µM: 10^-5 M, triplicate, read-out: percentage of inhibition of cell growth, LNCaP; for IC50: averages of two independent values
Description: as §2, §3

MDA231 = assay: Antiproliferative activity (MTS) on MDA231; assay type: cell-based, human; settings: Homo sapiens, MDA-MB-231, 72 hours; for inhibition at 10 µM: 10^-5 M, triplicate, read-out: percentage of inhibition of cell growth, MDA231; for IC50: averages of two independent values
Description: as §2, §3

Mia-PaCa = assay: Antiproliferative activity (MTS) on Mia-PaCa; assay type: cell-based; settings: Homo sapiens, MIA PaCa-2, 72 hours; for inhibition at 10 µM: 10^-5 M, triplicate, read-out: percentage of inhibition of cell growth, Mia-PaCa; for IC50: averages of two independent values
Description: as §2, §3

MDA435 = assay: Antiproliferative activity (MTS) on MDA435; assay type: cell-based; settings: Homo sapiens, 10^-5 M, 72 hours, triplicate, read-out: percentage of inhibition of cell growth, MDA435
Description: as §2, §3

HCT116 = assay: Antiproliferative activity (MTS) on HCT116; assay type: cell-based; settings: Homo sapiens, HCT-116; 10^-5 M, 72 hours, triplicate; read-out: percentage of inhibition of cell growth, HCT116
Description: as §2, §3

[2] = tested on: cryopreserved human hepatocytes (primary culture); assay: Hepatocyte viability (MTT test) on suspended cryopreserved human hepatocytes; assay type: cell-based; settings: 90 minutes incubation, relative to non treated cells, Table I campaign
Description: The hepatocyte viability corresponds to the percentage of surviving suspended human hepatocytes after 90 minutes of incubation with the compounds of the invention present at a concentration of […].
Hepatocyte viability was measured for different compounds according to the invention with cryopreserved human hepatocytes (primary culture) suspended and distributed in 96-well plates with a density of 0.1×10^6 cells per well, in a […] culture medium per well (DMEM+gentamycin (50 mg/L)+insulin (4 mg/L)+dexamethasone (1 μM)) in a CO2/air (5%/95%) humidified atmosphere at 37° C. After 30 minutes for attaining equilibrium, […] of culture medium containing the tested compounds (dissolved in DMSO) or of medium only containing DMSO (final concentration of 0.1%) were added with stirring at 900 rpm.
Cytotoxicity is evaluated with an MTT (Thiazolyl Blue Tetrazolium Bromide) test. The tested compounds or the DMSO are left to incubate for 90 minutes, and then 10 μL of MTT at 10 mg/10 mL are added per well for 30 mins. Next, the plates are centrifuged for 10 minutes at 2,000 g, the MTT is removed and some DMSO is added in an amount of 100 μL per well. The plates are gently shaked and then absorbance is measured at 595 nm by means of a spectrophotometric reader of micro-plates. The hepatocyte viability measured here corresponds to the percentage of surviving hepatocytes after 90 minutes of incubation with the compounds tested at a concentration of 100 μM, relatively to non treated cells.
The same tests were conducted for a concentration of compounds at 200 μM.
The tests were conducted in two distinct campaigns. In both cases, troglitazone (K) was used as a reference molecule.

HepG2 = assay: Antiproliferative activity (MTS) on HepG2; assay type: cell-based; settings: Homo sapiens, 72 hours; for inhibition at 10 µM: 10^-5 M, triplicate, read-out: percentage of inhibition of cell growth, HepG2; for IC50: averages of two independent values
Description: as §2, §3

| SMILES | maximum tolerated dose (female NMRI mice) | inhibition at 10 µM (PC3) | MTD at 2 weeks [1] | inhibition at 10 µM (MCF7) | IC50 (MCF7) | inhibition at 10 µM (LNCaP) | IC50 (LNCaP) | inhibition at 10 µM (MDA231) | IC50 (MDA231) | inhibition at 10 µM (Mia-PaCa) | IC50 (Mia-PaCa) | inhibition at 10 µM (MDA435) | inhibition at 10 µM (HCT116) | Hepatocyte viability % (100 μM) [2] | Hepatocyte viability % (200 μM) [2] | inhibition at 10 µM (HepG2) | IC50 (HepG2) |
| --- | --- | --- | --- | --- | --- | --- | --- | --- | --- | --- | --- | --- | --- | --- | --- | --- | --- |
| Cc1c(C)c2c(c(C)c1O)CCC(C)(COc1ccc(C=C3SC(=O)NC3=O)cc1)O2 (stereo not drawn) [Δ2TGZ, reference compound] | less than 34 mg/kg | – | – | – | – | – | – | – | – | – | – | – | – | – | – | – | – |
| Cc1c(C)c2c(c(C)c1CCCCCCN)CCC(C)(COc1ccc(/C=C3\SC(=O)NC3=O)cc1)O2 (racemic) [E, (±) 5-{4-[6-(6-amino-hexyl)-2,5,7,8-tetramethyl-chroman-2-ylmethoxy]-benzylidene}thiazolidine-2,4-dione trifluoroacetate] | – | 40% | 34 mg/kg | 97% | 6.4 µM | 53% | 5.1 µM | 92% | 4.7 µM | 94% | 3.9 µM | 65% | 93% | 83% | 80% | 87% | 3.1 µM |
| Cc1c(C)c2c(c(C)c1CCCCCCN)CCC(C)(COc1ccc(/C=C3\SC(=O)N(C)C3=O)cc1)O2 (racemic) [D, (±) 5-{4-[6-(6-amino-hexyl)-2,5,7,8-tetramethyl-chroman-2-ylmethoxy]-benzylidene}-3-methyl-thiazolidine-2,4-dione trifluoroacetate] | – | 92% | 65.5 mg/kg | 101% | 6.9 µM | 88% | 6.5 µM | 101% | 4.6 µM | 103% | 3.2 µM | 101% | 101% | 83% | 83% | 100% | 7.9 µM |
